The NIST ThermoML archive (doi:10.1016/j.jct.2005.10.006)
Values joined by “and” are separate entries in the source; they are usually repeats but may differ in a detail not shown here. Identical values can stand only once. ± gives the expanded uncertainty stated by the source.

Experiment: xn = mol fraction of the nth substance listed
Settings: Fluid (supercritical or subcritical phases), Spherical resonator

N#N [nitrogen] + C
Settings	speed of sound
170 K, 124.7 kPa, x1 = 0.5422	291.53 ± 0.49 m/s
170 K, 150 kPa, x1 = 0.5422	291.29 ± 0.49 m/s
170 K, 174.8 kPa, x1 = 0.5422	291.06 ± 0.49 m/s
170 K, 199.8 kPa, x1 = 0.5422	290.83 ± 0.49 m/s
170 K, 224.8 kPa, x1 = 0.5422	290.59 ± 0.49 m/s
170 K, 249.8 kPa, x1 = 0.5422	290.36 ± 0.49 m/s
170 K, 279.7 kPa, x1 = 0.5422	290.07 ± 0.49 m/s
170 K, 280 kPa, x1 = 0.5422	290.07 ± 0.49 m/s
170 K, 409.7 kPa, x1 = 0.5422	288.85 ± 0.49 m/s
170 K, 409.8 kPa, x1 = 0.5422	288.85 ± 0.49 m/s
170 K, 680.3 kPa, x1 = 0.5422	286.28 ± 0.48 m/s
170 K, 680.4 kPa, x1 = 0.5422	286.28 ± 0.48 m/s
170 K, 1293 kPa, x1 = 0.5422	280.36 ± 0.47 m/s
170 K, 2374 kPa, x1 = 0.5422	269.67 ± 0.46 m/s and 269.68 ± 0.46 m/s
170 K, 3248 kPa, x1 = 0.5422	261.01 ± 0.45 m/s
170 K, 3249 kPa, x1 = 0.5422	260.99 ± 0.44 m/s
170 K, 3953 kPa, x1 = 0.5422	254.33 ± 0.43 m/s
170 K, 3954 kPa, x1 = 0.5422	254.32 ± 0.43 m/s
170 K, 4555 kPa, x1 = 0.5422	249.39 ± 0.43 m/s
170 K, 4572 kPa, x1 = 0.5422	249.51 ± 0.43 m/s
190 K, 311.9 kPa, x1 = 0.5422	307.35 ± 0.52 m/s
190 K, 457.6 kPa, x1 = 0.5422	306.42 ± 0.51 m/s
190 K, 762.5 kPa, x1 = 0.5422	304.49 ± 0.51 m/s
190 K, 1464 kPa, x1 = 0.5422	300.13 ± 0.5 m/s
190 K, 2748 kPa, x1 = 0.5422	292.7 ± 0.49 m/s
190 K, 3852 kPa, x1 = 0.5422	287.32 ± 0.48 m/s
190 K, 4810 kPa, x1 = 0.5422	284.03 ± 0.48 m/s
190 K, 5716 kPa, x1 = 0.5422	282.84 ± 0.48 m/s
215 K, 351.4 kPa, x1 = 0.5422	327.5 ± 0.55 m/s
215 K, 516.2 kPa, x1 = 0.5422	326.87 ± 0.55 m/s
215 K, 863.4 kPa, x1 = 0.5422	325.57 ± 0.54 m/s
215 K, 1672 kPa, x1 = 0.5422	322.77 ± 0.54 m/s
215 K, 3199 kPa, x1 = 0.5422	318.49 ± 0.53 m/s
215 K, 4573 kPa, x1 = 0.5422	316.24 ± 0.53 m/s
215 K, 5826 kPa, x1 = 0.5422	316.02 ± 0.53 m/s
215 K, 7070 kPa, x1 = 0.5422	317.96 ± 0.53 m/s
220 K, 99.6 kPa, x1 = 0.2	363.86 ± 0.6 m/s
220 K, 101.5 kPa, x1 = 0.2	363.89 ± 0.6 m/s
220 K, 200 kPa, x1 = 0.1	374.49 ± 0.62 m/s
220 K, 249.1 kPa, x1 = 0.2	362.81 ± 0.6 m/s
220 K, 249.2 kPa, x1 = 0.2	362.81 ± 0.6 m/s
220 K, 249.5 kPa, x1 = 0.2	362.85 ± 0.6 m/s
220 K, 498.6 kPa, x1 = 0.2	361.06 ± 0.6 m/s
220 K, 498.8 kPa, x1 = 0.2	361.05 ± 0.6 m/s
220 K, 499.1 kPa, x1 = 0.2	361.09 ± 0.6 m/s
220 K, 501.4 kPa, x1 = 0.1	371.96 ± 0.62 m/s
220 K, 998.6 kPa, x1 = 0.2	357.56 ± 0.59 m/s
220 K, 999.3 kPa, x1 = 0.2	357.56 ± 0.59 m/s
220 K, 1001 kPa, x1 = 0.1	367.77 ± 0.61 m/s
220 K, 1003 kPa, x1 = 0.2	357.57 ± 0.59 m/s
220 K, 2006 kPa, x1 = 0.2	350.72 ± 0.58 m/s
220 K, 2007 kPa, x1 = 0.1	359.38 ± 0.6 m/s
220 K, 2008 kPa, x1 = 0.2	350.73 ± 0.58 m/s
220 K, 3014 kPa, x1 = 0.2	344.27 ± 0.57 m/s
220 K, 3016 kPa, x1 = 0.2	344.28 ± 0.57 m/s
220 K, 3018 kPa, x1 = 0.1	351.21 ± 0.58 m/s
220 K, 4002 kPa, x1 = 0.2	338.63 ± 0.56 m/s
220 K, 4034 kPa, x1 = 0.2	338.48 ± 0.56 m/s
220 K, 4040 kPa, x1 = 0.1	343.53 ± 0.57 m/s
220 K, 5057 kPa, x1 = 0.2	333.84 ± 0.56 m/s
220 K, 6079 kPa, x1 = 0.2	331.09 ± 0.55 m/s
220 K, 6099 kPa, x1 = 0.1	332.63 ± 0.55 m/s
220 K, 7000 kPa, x1 = 0.2	331.07 ± 0.55 m/s
220 K, 7981 kPa, x1 = 0.2	334.7 ± 0.56 m/s
220 K, 8215 kPa, x1 = 0.1	339.23 ± 0.57 m/s
220 K, 9000 kPa, x1 = 0.2	343.57 ± 0.57 m/s
220 K, 9974 kPa, x1 = 0.2	357.39 ± 0.59 m/s
220 K, 10421 kPa, x1 = 0.1	383.6 ± 0.64 m/s
220 K, 10996 kPa, x1 = 0.2	376.87 ± 0.62 m/s
220 K, 12068 kPa, x1 = 0.2	401.11 ± 0.66 m/s
220 K, 12996 kPa, x1 = 0.2	423.71 ± 0.7 m/s
220 K, 14014 kPa, x1 = 0.2	449.03 ± 0.73 m/s
220 K, 14274 kPa, x1 = 0.1	498.94 ± 0.82 m/s
